From US10357485B1, “Anti-cancer compound” (KING SAUD UNIVERSITY, priority 2018, dated 2019)
Like-named read-outs stand apart in the source and are kept apart here.

Tests used:
Type in all cases: cell-based, human
JURKAT cells [1] = experiment: FITC Annexin V/PI apoptosis assay by flow cytometry; conditions: 48 h of treatment, compound 4 at 10.33 μM
Method: To determine whether the antiproliferative effect of compound 4 can trigger cell apoptosis, the percentage of JURKAT cells undergoing apoptosis was determined by flow cytometric analysis after the cells were stained with FITC Annexin V and proidium iodide (PI). […] As depicted in FIGS. 6A-6G, after 48 h of treatment with compound 4, a significant accumulation of AnnexinV^+ was observed, relative to CTP treated cells. 45.21% and 12.54% of cells were determined to be in early apoptosis (AnnexinV^+) when treated with compound 4 and CTP, respectively. Similarly, 46.32% and 14.33% of cells were determined to be in late apoptosis (AnnexinV^+, PI^+) when treated with compound 4 and CTP, respectively. Apoptosis assay was performed using FITC Annexin V Apoptosis Detection Kit I (BD Biosciences, San Jose, Calif., USA). The fluorescence intensities of FITC-conjugated Annexin V and PI in compound 4 treated, control treated and untreated cells were analyzed using flow cytometry. Briefly, JURKAT cells (1×10^6 cells/well) were seeded in a 6-well plate. […] Following trypsinization, cells were centrifuged at 1000×g for 10 min, and the pellet was gently resuspended in 100 μL FITC Annexin V binding buffer and then incubated with 5 μL of FITC Annexin V in the dark for 10 min at 25° C. The cells were then centrifuged at 2000 rpm for 5 min, gently resuspended in 500 μL of FITC Annexin V binding buffer and 5 μL of PI was added in an ice bath, followed by flow cytometry (BD FACS Calibur, San Jose, Calif., USA) the apoptotic cells were analyzed using Cell Quest software.

JURKAT cells [2] = experiment: MTT cytotoxicity assay on JURKAT cells; conditions: for IC50: Homo sapiens, JURKAT cells
Method: As described in detail herein, a cytotoxicity assay of compound 4 was performed on four human cancer cell lines—JURKAT, NCI-H460, HCT116 and MCF7—with camptothecin (CPT) as a positive control. The inhibitory effects of compound 4 on JURKAT, NCI-H460, HCT116 and MCF7 cancer cells were determined by an MTT (3-[4,5-dimethylthiazol-2-yl]-2,5 diphenyltetrazolium bromide) assay. The cancer cells were exposed to compound 4 at various concentrations of 1, 5, 10, 15, and 20 μM for different incubation periods of 24 h and 48 h. […] The stock solutions of 1 mM compound 4 and camptothecin (40 μM) were prepared, respectively, in DMSO. Further dilutions of 1, 5, 10, 15, and 20 μM were made in Dulbecco's Modified Eagle's Medium (DMEM) for treatment of cancer cells. MCF-7 (human breast cancer); HCT116 (human colon cancer); NCI-H460 (human non-small lung cancer); and JURKAT (human T-cell lymphoma) cell lines were obtained from the National Centre for Cell Science (NCCS, Pune, India). All cells were cultured in DMEM—except JURKAT cells, which were cultured in RPMI media—and supplemented with 10% fetal bovine serum (HiMedia, India) with penicillin (100 I.U/mL) and streptomycin (100 μg/mL) at 37° C. in a humidified atmosphere of 5% CO2 in air. Cultured cells of 75-85% confluency were used for the assays. Adherent cells were trypsinized, counted and seeded in 96-well plates for viability studies. Cells were allowed to adhere overnight before treatment in the experiments. JURKAT cells were washed with D-PBS, counted and seeded in 96-well plates for viability studies. Cytotoxicity of compound 4 for JURKAT cells was determined by 3-(4,5-dimethylthiazol-2-yl)-2,5-diphenyltetrazolium bromide (MTT) assay. In brief, cells were seeded with different concentrations of compound 4—specifically 1, 5, 10, 15, and 20 μM—in 96 wells plate at a density of 20000 cells per well and incubated for 24 h and 48 h at 37° C., in a CO2 incubator. The MTT assay was performed according to manufacturer instructions and absorbance of the treated and untreated cells were measured in a microplate reader at 570 nm wavelength. Results were represented as percentage of viability={[A570 (treated cells)−background]/[A570 (untreated cells)−background]}×100. Each treatment was performed in triplicate (N=3).

MCF7 cells = experiment: MTT cytotoxicity assay on MCF7 cells; conditions: MCF7, 1-20 μM, 24 and 48 hours
Method: (§1) As described in detail herein, a cytotoxicity assay of compound 4 was performed on four human cancer cell lines—JURKAT, NCI-H460, HCT116 and MCF7—with camptothecin (CPT) as a positive control. The inhibitory effects of compound 4 on JURKAT, NCI-H460, HCT116 and MCF7 cancer cells were determined by an MTT (3-[4,5-dimethylthiazol-2-yl]-2,5 diphenyltetrazolium bromide) assay. The cancer cells were exposed to compound 4 at various concentrations of 1, 5, 10, 15, and 20 μM for different incubation periods of 24 h and 48 h. […] The stock solutions of 1 mM compound 4 and camptothecin (40 μM) were prepared, respectively, in DMSO. Further dilutions of 1, 5, 10, 15, and 20 μM were made in Dulbecco's Modified Eagle's Medium (DMEM) for treatment of cancer cells. […] Adherent cells were trypsinized, counted and seeded in 96-well plates for viability studies. […] JURKAT cells were washed with D-PBS, counted and seeded in 96-well plates for viability studies. Cytotoxicity of compound 4 for JURKAT cells was determined by 3-(4,5-dimethylthiazol-2-yl)-2,5-diphenyltetrazolium bromide (MTT) assay. […] The MTT assay was performed according to manufacturer instructions and absorbance of the treated and untreated cells were measured in a microplate reader at 570 nm wavelength. […]

JURKAT cells [3] = experiment: DNA fragmentation by TUNEL assay; conditions: 48 h, 10.33 μM
Source text: DNA fragmentation is a key feature of apoptosis, and is largely due to activation of endogenous endonucleases that induce cleavage of chromatin DNA into internucleosomal fragments of roughly 180 base pairs. Apoptosis can be qualitatively assessed by monitoring DNA fragmentation trends, for instance, using terminal deoxynucleotidyl transferase dUTP nick end labeling (TUNEL) assay. For untreated […] cells, TUNEL assay results indicated a constant base line of TUNEL-positive cells. […] DNA fragmentation was monitored in treated, control treated and untreated JURKAT cells to identify stages of apoptosis. […] Supernatant and adherent cells were collected in a centrifuge tube and then washed twice with PBS. The cells were fixed with 70% ice-cold ethanol by incubating at -20° C. for 30 min. The fixed cells were resuspended in wash buffer, and then washed twice by centrifugation. 50 μl of DNA labeling solution was added to each cell pellet. The cell pellets were incubated with the DNA labeling solution at 37° C. for 60 min. The cell pellets were rinsed with rinse buffer and then resuspended with 0.5 ml of PI/RNase Staining Buffer and incubated for 30 min at RT. Flow cytometry was performed to detect DNA fragmentation (BD FACS Calibur, San Jose, Calif., USA).

[4] = tested on: Caspase-3 in JURKAT cells; experiment: Caspase-3 expression assay, FITC staining, flow cytometry; conditions: 48 h, 10.33 μM, CPT 40 μM
Method: Caspase-3 expression was measured using FITC staining. […] Apoptotic caspases are believed to be activated in a protease cascade in which the activated apical caspases responding to apoptotic stimuli directly activate the executioner (effector) caspases in a precisely controlled process. Among these effector caspases, caspase-3, a member of the cysteine protease family, plays a central role in the execution phase of both intrinsic (mitochondrial) and extrinsic (death receptor) pathways of apoptosis by cleaving many key cellular proteins, such as poly (ADP ribose) polymerase (PARP), inhibitor of caspase-activated DNase (ICAD), and several others. Briefly, JURKAT cells (1×10^6 cells/well) were seeded in a 6-well plate. […] The JURKAT cells were harvested and then fixed with 70% ice-cold ethanol followed by incubation at −20° C. for 30 min. The fixed JURKAT cells were washed twice with PBS and treated with 20 μl of Caspase-3-FITC (BD Biosciences) and incubated for 60 min at room temperature in dark conditions. Cells were washed with PBS and resuspended in 0.5 ml of PBS, before analysis for Caspase-3 expression using BD FACS Callibur (San Jose, Calif., USA).

HCT116 cells = experiment: MTT cytotoxicity assay on HCT116 cells; conditions: HCT116, 1-20 μM, 24 and 48 hours
Method: as §1

JURKAT cells [5] = experiment: Mitochondrial membrane potential (ΔΨm) assay, JC-1 staining; conditions: 48 h, 10.33 μM
Method: Mitochondrial membrane depolarization is an early event in apoptosis. Chemotherapeutic agents usually induce apoptosis via the mitochondrial pathway. Evaluation of the effect of compound 4 treatment on mitochondrial membrane depolarization was determined using flow cytometry after staining with mitochondrial potential-sensitive dye JC-1. […] Mitochondrial membrane potential (ΔΨm) was determined using JC-1, a fluorescent carbocyanine dye (Smiley et al., 1991). Briefly, JURKAT cells (1×10^6 cells/well) were seeded in a 6-well plate. […] Each of the cell pellets were incubated with 2.5 μM JC-1 for 15 min at 37° C. in darkness. Subsequently, stained cells were washed with PBS, followed by FACS analysis (BD FACS Calibur, San Jose, Calif., USA).

JURKAT cells [6] = experiment: Cell cycle analysis, propidium iodide staining, flow cytometry; conditions: 48 h, 10.33 μM
Method: Therefore, interruption of cell cycle progression is an important target for cancer treatment. JURKAT cells were treated with compound 4 for 48 h and stained with propidium iodide to determine the proportion of cells undergoing apoptosis or cell death as analyzed by flow cytometry. […] The percentage of compound 4-treated cells decreased in G0/G1 and G2/M phase. […] Checkpoints are the pathways that halt progression of the cell cycle in response to cellular stress. Targeting checkpoint pathways are potential anti-cancer strategies because abrogation of checkpoint function drives tumor cells toward apoptosis and enhances the efficacy of oncotherapy. The cell cycle phase evaluation was performed as described by […] et al. (2007). Jurkat cells were plated at 1×10^6 cells/well in a six-well plate for 12 h and then cells were exposed with compound-4 in serum-free media and incubated for an additional 48 h. […] Following trypsinization, cells were centrifuged at 1000×g for 10 min, and the pellet was resuspended in PBS. Fixation was completed by adding 70% cold ethanol for at least 2 h. The fixed cells were centrifuged at 1000 g for 10 min, and the pellet suspended in PBS. After 60 s, the cells were centrifuged as before, and the pellet resuspended in 1 ml of propidium iodide (PI) staining solution. Immediately after 15 min incubation at 37° C., the cells were analyzed to determine the cell cycle stage using flow cytometry (BD FACS Calibur, San Jose, Calif., USA) with an excitation wavelength of 488 nm and an emission at 670 nm using the Cell Quest software for analysis. The data presented represent at least three independent experiments conducted in triplicate (N=3).

NCI-H460 cells = experiment: MTT cytotoxicity assay on NCI-H460 cells; conditions: NCI-H460, 1-20 μM, 24 and 48 hours
Method: as §1

SMILES	cells in early apoptosis (AnnexinV+) (JURKAT cells [1])	cells in late apoptosis (AnnexinV+, PI+) (JURKAT cells [1])	IC50 (JURKAT cells [2]; given as treatment concentration, time not stated, read-out: IC50 of CPT as stated in the methods)	Proliferation of the cancer cells (MCF7 cells)	number of TUNEL-positive cells compared with untreated or control cells (JURKAT cells [3])	DNA fragmentation relative to CTP (control) treated cells (JURKAT cells [3]; CPT 40 μM)	caspase-3 expression compared with CPT control treated cells [4]	Proliferation of the cancer cells (HCT116 cells)	mitochondrial membrane potential (ΔΨm) compared to control (untreated) cells (JURKAT cells [5])	percentage of cells in G0/G1 phase (JURKAT cells [6])	percentage of cells in G2/M phase (JURKAT cells [6])	percentage of cells in S phase compared to untreated cells (JURKAT cells [6])	percentage of cells in sub G0/G1 phase compared to untreated cells (JURKAT cells [6])	IC50 (JURKAT cells [2]; MTT, 24 h, read-out: IC50 (half maximal inhibitory concentration))	IC50 (JURKAT cells [2]; MTT, 48 h, read-out: IC50 (half maximal inhibitory concentration))	Proliferation of the cancer cells (JURKAT cells [2]; JURKAT, 1-20 μM, 24 and 48 hours)	Inhibition compared to positive control CPT (40 μM) (JURKAT cells [2]; compound 4 at 15 μM and 20 μM)	Proliferation of the cancer cells (NCI-H460 cells)
CC[C@@]1(O)C(=O)OCc2c1cc1n(c2=O)Cc2cc3ccccc3nc2-1 [CPT, camptothecin, reference compound]	12.54%	14.33%	40 µM	–	–	–	–	–	–	–	–	–	–	–	–	–	–	–
O=C1/C(=C/c2ccc(Br)cc2)CN2CC13C(c1ccc(Br)cc1)C1Cc4ccccc4CN1C31c3cccc4cccc(c34)[C@@]21O (some centres unmarked) [compound 4]	45.21%	46.32%	–	significantly inhibited in a concentration-dependent manner	significant increase	increased DNA fragmentation	higher caspase-3 expression	significantly inhibited in a concentration-dependent manner	Significant decrease	decreased	decreased	significantly increased	moderately increased	15.6 µM	10.3 µM	significantly inhibited in a concentration-dependent manner	higher inhibition	significantly inhibited in a concentration-dependent manner
